From patent US7816319B2, “Methods and products for manipulating uncoupling protein expression” (University of Vermont and State Agricultural College, priority 1999, dated 2010)

Key:
[1] = metabolite formed from 5-FU; cited from earlier work
[2] = 5-FU that is taken up by the cell; cited from earlier work
[3] = system: L1210; assay: Fas expression after treatment with staurosporin or adriamycin; type: cell-based
Text: (§1) 4. Treatment of L1210 DDP cells with staurosporin restores Fas expression and susceptibility to drug-induced apoptosis: L1210, but not L1210 DDP, undergo apoptotic cell death. We treated L1210 or L1210 DDP cells with the staurosporin, which inhibits protein kinase C and increases mitochondrial membrane potential, or an anti-cancer agent to which both cells are sensitive, adriamycin. Fas expression was increased or induced on both L1210 and L1210 DDP, respectively, in the presence of staurosporin or adriamycin. The L1210 DDP changed morphologically and began to divide rapidly, changes which appeared to correspond with a reversion back to the phenotype of the L1210 cells.

[4] = system: L1210 DDP; assay: as above; type: cell-based
Text: as §1

[5] = system: Fas deficient lymphocytes; assay: Methotrexate-induced apoptosis in splenic lymphocytes, viability by flow cytometry and trypan blue; type: cell-based, mice; conditions: splenocytes of C57BL/6 lpr or gld vs wild type; 5×10^−8 M methotrexate, 18 or 32 hours
Protocol: 8. Fas Deficient Lymphocytes are also drug resistant to methotrexate: We isolated splenic lymphocytes from aged-matched wild type C57BL/6 mice and C57BL6.1pr and C57BL.gld. Splenocytes from C57BL/6 lpr or gld animals were isolated, red cells depleted, and single cell suspensions prepared. Cells were cultured in the absence or presence of 5×10^−8 M methotrexate for 18 or 32 hours. Cells were harvested and viability was determined by flow cytometric analysis and confirmed with trypan blue exclusion.

[6] = system: L1210; assay: Analysis of DNA fragments after methotrexate treatment; type: cell-based; conditions: 10^-8 M methotrexate, 24 hours
Protocol: (§2) Additionally, L1210 and L1210/DDP cells were treated with 10^-8 M methotrexate for 24 hours. […] The forward scatter low populations took up ethidium bromide differentially. The L1210 cells took up a moderate amount. […] This latter phenotype—loss in forward scatter and membrane permeability with no “DNA laddering”—is the hall mark of oncosis.

[7] = system: L1210/DDP; assay: as above; type: cell-based; conditions: 10^-8 M methotrexate, 24 hours
Protocol: as §2

[8] = system: L1210DDP
Text: (§3) The effects of acetate on susceptibility to Fas-dependent cell death were also examined.

[9] = system: L1210
Text: as §3

[10] = system: B16 melanoma cells; conditions: increasing concentrations of sodium acetate
Protocol: B16 cells were cultured in the in the presence of different concentrations of sodium acetate and Fas expression was measured.
B16 cells also were cultured in the presence of different concentrations of sodium acetate and Fas expression was measured.

[11] = system: B16 melanoma cells; conditions: increasing concentrations of sodium acetate; remark: listed apart in the source
Protocol: Again cells were cultured in the presence of varying concentration of sodium acetate.

[12] = system: L1210DDP; conditions: graded concentrations of sodium acetate
Protocol: (§4) Sodium Acetate as a mitochondrial modifying agent was examined. L1210 or L1210DDP cells were cultured in the presence of graded concentrations of sodium acetate in the medium. Cells were stained with Jo2.2, a fluorescein conjugated anti-Fas antibody, or an isotype control. Cell surface staining was measured flow cytometrically. The percentage of mean fluorescence intensity over the isotype control was plotted.

[13] = system: L1210; conditions: graded concentrations of sodium acetate
Protocol: as §4

[14] = system: MDR cells; assay: Inhibition of lysosomal UCP translocation; type: cell-based
Protocol: MDR cells, which are plasma membrane UCP negative and lysosomal UCP positive were treated with tunicamycin. […] These same cells were treated with tunicamycin and an-anti-UCP2 antibody.

In the case of `NCC(F)C(=O)O` (stereo not drawn) [2-fluoro-β-alanine (FBAL), 2-fluoro-β-alanine], the toxicity [1] is listed as “neurotoxic and cardiotoxic”.

In the case of `O=c1[nH]cc(F)c(=O)[nH]1` [5-FU, 5-Fluorouracil], the half-life in vivo [2] is given as “about 18 minutes”.

In the case of `COc1cccc2c1C(=O)c1c(O)c3c(c(O)c1C2=O)C[C@@](O)(C(=O)CO)C[C@@H]3O[C@H]1C[C@H](N)[C@H](O)[C@H](C)O1` [adriamycin], the Fas expression [3] is reported as “increased” and the Fas expression [4] is reported as “induced”.

In the case of `CN(Cc1cnc2nc(N)nc(N)c2n1)c1ccc(C(=O)N[C@@H](CCC(=O)O)C(=O)O)cc1` [methotrexate], the “susceptibility to methotrexate-induced apoptosis” value [5] is reported as “decreased susceptibility”, the “DNA laddering (nucleosome sized fragments)” value [6] is reported as “produced a ladder of nucleosome sized fragments indicative of apoptosis” and the “DNA laddering (nucleosome sized fragments)” value [7] is reported as “did not”.

In the case of `CC(=O)[O-].[Na+]` [sodium acetate], the “susceptibility to Fas-dependent cell death” value [8] is reported as “resulted in susceptibility to Fas-dependent cell death”, the “susceptibility to Fas-dependent cell death” value [9] is reported as “resulted in susceptibility to Fas-dependent cell death” and the “levels of cell surface Fas” value ([10]; non-permeabilized B16) is reported as “increased”. The “levels of intracellular Fas” value ([10]; permeabilized B16) was “declined”, the glucose oxidation [11] was “decreased” and the glucose utilization [11] was “decreased”. The “cell surface Fas expression” value [12] was “increases cell surface Fas expression” and the “cell surface Fas expression” value [13] was “increases cell surface Fas expression”.

With `CN[C@@H]1C[C@H]2O[C@@](C)([C@@H]1OC)n1c3ccccc3c3c4c(c5c6ccccc6n2c5c31)C(=O)NC4` [staurosporin] the Fas expression [3] was “increased” and the Fas expression [4] was “induced”.

With tunicamycin the “localization of intracellular UCP” value [14] was “shift in the intracellular UCP from the lysosome and mitochondria to the plasma membrane”.
